Experimental data published in patent publication US9096548B2, “Pyrazine amide compounds” (Boehringer Ingelheim International GmbH, priority 2013, dated 2015).
pIC50: −log10 of the molar value. Structures can show the parent of a compound that is named as a salt.

biological target: T1, ENaC (Epithelial Sodium Channel) (Mus musculus, UniProt Q61180+Q9WU38+Q9WU39); test: Ussing Chamber assay (short circuit current, amiloride sensitive I_SC); assay type: cell-based; details: Ussing chamber, mouse kidney M-1 cells, short circuit current, compound added to the apical solution; read-out: IC50
T1 construct: Mouse kidney M−1 cells were cultivated in DMEM; endogenous in cells; host or cells: Mouse kidney M-1 cells, cultivated with dexamethasone on transwell filters
T1 sequence (Q61180 1-699): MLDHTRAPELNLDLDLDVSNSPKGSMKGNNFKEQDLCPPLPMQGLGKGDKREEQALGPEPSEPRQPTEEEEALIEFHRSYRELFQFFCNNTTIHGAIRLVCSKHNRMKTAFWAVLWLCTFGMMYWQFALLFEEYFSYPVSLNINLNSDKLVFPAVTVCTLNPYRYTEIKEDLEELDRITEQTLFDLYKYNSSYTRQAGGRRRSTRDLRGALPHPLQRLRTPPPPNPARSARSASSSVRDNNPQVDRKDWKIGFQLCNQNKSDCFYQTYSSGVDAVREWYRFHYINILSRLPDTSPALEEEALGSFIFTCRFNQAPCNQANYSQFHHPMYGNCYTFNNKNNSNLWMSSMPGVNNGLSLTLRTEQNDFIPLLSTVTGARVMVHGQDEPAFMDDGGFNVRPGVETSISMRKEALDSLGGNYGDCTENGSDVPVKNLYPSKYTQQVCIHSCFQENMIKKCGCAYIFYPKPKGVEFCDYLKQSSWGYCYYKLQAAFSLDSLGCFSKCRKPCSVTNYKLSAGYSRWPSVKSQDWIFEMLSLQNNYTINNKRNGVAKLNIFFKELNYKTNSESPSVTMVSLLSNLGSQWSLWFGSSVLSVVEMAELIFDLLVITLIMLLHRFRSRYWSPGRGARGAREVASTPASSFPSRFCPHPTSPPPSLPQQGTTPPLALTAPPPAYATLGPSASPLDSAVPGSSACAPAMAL
T1 sequence (Q9WU38 1-638): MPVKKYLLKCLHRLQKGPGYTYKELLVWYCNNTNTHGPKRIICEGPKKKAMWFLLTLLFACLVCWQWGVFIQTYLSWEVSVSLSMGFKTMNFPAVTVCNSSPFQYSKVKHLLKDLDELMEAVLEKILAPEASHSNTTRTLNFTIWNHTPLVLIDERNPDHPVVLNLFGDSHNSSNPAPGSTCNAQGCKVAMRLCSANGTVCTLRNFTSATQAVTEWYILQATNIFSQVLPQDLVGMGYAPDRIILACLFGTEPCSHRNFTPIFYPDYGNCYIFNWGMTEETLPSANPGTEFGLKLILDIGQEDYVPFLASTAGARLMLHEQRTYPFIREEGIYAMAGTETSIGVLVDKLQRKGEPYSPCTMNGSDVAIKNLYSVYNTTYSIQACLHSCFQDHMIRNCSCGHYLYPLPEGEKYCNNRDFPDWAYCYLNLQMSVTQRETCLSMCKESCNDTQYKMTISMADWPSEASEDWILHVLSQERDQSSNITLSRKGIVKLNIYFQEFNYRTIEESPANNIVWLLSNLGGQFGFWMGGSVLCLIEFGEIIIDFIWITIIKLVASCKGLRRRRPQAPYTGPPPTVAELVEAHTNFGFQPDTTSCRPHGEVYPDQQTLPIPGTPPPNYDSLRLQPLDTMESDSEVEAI
T1 sequence (Q9WU39 1-655): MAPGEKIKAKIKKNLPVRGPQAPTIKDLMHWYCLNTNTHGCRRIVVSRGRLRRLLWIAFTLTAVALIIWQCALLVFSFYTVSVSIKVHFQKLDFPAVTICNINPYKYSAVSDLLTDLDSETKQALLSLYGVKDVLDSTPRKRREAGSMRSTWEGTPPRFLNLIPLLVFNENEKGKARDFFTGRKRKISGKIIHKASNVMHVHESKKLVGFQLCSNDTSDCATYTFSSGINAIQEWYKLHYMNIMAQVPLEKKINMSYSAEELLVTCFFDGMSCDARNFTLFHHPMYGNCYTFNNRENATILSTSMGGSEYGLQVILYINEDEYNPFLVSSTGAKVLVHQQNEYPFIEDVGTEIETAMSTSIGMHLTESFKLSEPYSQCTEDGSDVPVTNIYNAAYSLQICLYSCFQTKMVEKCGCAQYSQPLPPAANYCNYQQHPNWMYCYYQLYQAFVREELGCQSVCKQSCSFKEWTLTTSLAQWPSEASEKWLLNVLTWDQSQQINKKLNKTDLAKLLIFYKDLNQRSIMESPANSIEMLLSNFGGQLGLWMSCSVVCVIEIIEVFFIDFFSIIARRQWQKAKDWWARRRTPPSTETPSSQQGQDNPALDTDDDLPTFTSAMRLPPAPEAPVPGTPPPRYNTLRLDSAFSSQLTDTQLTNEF
Summary of the method: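 Mouse kidney M-1 cells grown 10–12 days on filters with 5 μM dexamethasone, measured in Caco-2 transport buffer at 37° C under voltage clamp. Compound applied apically at 3 μM or 1-3-10 μM; 3 μM amiloride added at end. Short circuit current inhibition given as percent of amiloride effect or IC50.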

pIC50	Compound
6.85	Nc1nc(N)c(C(=O)NC2CCC[N+](CCc3c[nH]c4ccccc34)(CCc3c[nH]c4ccccc34)C2)nc1Cl (stereo not drawn) [Example 10.1, 3-[(3,5-Diamino-6-chloro-pyrazine-2-carbonyl)-amino]-1,1-bis-[2-(1H-indol-3-yl)-ethyl]-piperidinium chloride]
7.57	COc1cccc(CCC[N+]2(CCCc3cccc(OC)c3)CCCC(NC(=O)c3nc(Cl)c(N)nc3N)C2)c1 (stereo not drawn) [Example 10.2, 3-[(3,5-Diamino-6-chloro-pyrazine-2-carbonyl)-amino]-1,1-bis-[3-(3-methoxy-phenyl)-propyl]-piperidinium chloride]
7.33	Nc1nc(N)c(C(=O)N[C@@H]2CCC[N+](CCCc3c(F)cccc3F)(CCCc3c(F)cccc3F)C2)nc1Cl [Example 10.3, 3-[(3,5-Diamino-6-chloro-pyrazine-2-carbonyl)-amino]-1,1-bis-[3-(2,6-difluoro-phenyl)-propyl]-piperidinium chloride]
7.82	Nc1nc(N)c(C(=O)NC2CCC[N+](CCCc3ccccc3)(CCCc3ccccc3)C2)nc1Cl (stereo not drawn) [Example 10.4, 3-[(3,5-Diamino-6-chloro-pyrazine-2-carbonyl)-amino]-1,1-bis-(3-phenyl-propyl)-piperidinium chloride]
6.98	COc1ccc(OCC[N+]2(CCOc3ccc(OC)cc3)CCC[C@H](NC(=O)c3nc(Cl)c(N)nc3N)C2)cc1 [Example 10.6, 3-[(3,5-Diamino-6-chloro-pyrazine-2-carbonyl)-amino]-1,1-bis-[2-(4-methoxy-phenoxy)-ethyl]-piperidinium chloride]
6.80	Nc1nc(N)c(C(=O)N[C@H]2CCC[N+](CCOc3ccccc3)(CCOc3ccccc3)C2)nc1Cl [Example 10.7, 3-[(3,5-Diamino-6-chloro-pyrazine-2-carbonyl)-amino]-1,1-bis-[2-phenoxy-ethyl]-piperidinium chloride]
7.47	N#Cc1ccc(CCC[N+]2(CCCc3ccc(C#N)cc3)CCC[C@H](NC(=O)c3nc(Cl)c(N)nc3N)C2)cc1 [Example 10.8, 1,1-Bis-[3-(4-cyano-phenyl)-propyl]-3-[(3,5-diamino-6-chloro-pyrazine-2-carbonyl)-amino]-piperidinium chloride]

same assay, conditions: Ussing chamber, mouse kidney M-1 cells, short circuit current; unit inferred; read-out: IC50

pIC50	Compound
6.43	COC(=O)COc1ccc(CCC[N+]2(CCCc3ccc(OCC(=O)NCCOCCOCCO)cc3)CCCC(NC(=O)c3nc(Cl)c(N)nc3N)C2)cc1 (stereo not drawn) [Example 8.2, 3-[(3,5-Diamino-6-chloro-pyrazine-2-carbonyl)-amino]-1-{3-[4-({2-[2-(2-hydroxy-ethoxy)ethoxy]-ethylcarbamoyl}-methoxy)-phenyl]-propyl}-1-[3-(4-methoxycarbonylmethoxy-phenyl)-propyl]-piperidinium chloride]
7.02	Nc1nc(N)c(C(=O)NC2CCC[N+](CCCc3ccc(OCCOCCOCCO)cc3)(CCCc3ccc(OCCOCCOCCO)cc3)C2)nc1Cl (stereo not drawn) [Example 9, 3-[(3,5-Diamino-6-chloro-pyrazine-2-carbonyl)-amino]-1,1-bis-[3-(4-{2-[2-(2-hydroxyethoxy)-ethoxy]-ethoxy}-phenyl)-propyl]-piperidinium chloride]
6.95	Nc1nc(N)c(C(=O)NC2CCC[N+](CCCc3ccc(OCCOCCOCCOCCOCCO)cc3)(CCCc3ccc(OCCOCCOCCOCCOCCO)cc3)C2)nc1Cl (stereo not drawn) [Example 9.1, 3-[(3,5-Diamino-6-chloro-pyrazine-2-carbonyl)-amino]-1,1-bis-(3-{4-[2-(2-{2-[2-(2-hydroxy-ethoxy)-ethoxy]-ethoxy}-ethoxy)-ethoxy]-phenyl}-propyl)-piperidinium chloride]
7.59	CCOc1ccc(CCC[N+]2(CCCc3ccc(OCC)cc3)CCCC(NC(=O)c3nc(Cl)c(N)nc3N)C2)cc1 (stereo not drawn) [Example 9.2, 3-[(3,5-Diamino-6-chloro-pyrazine-2-carbonyl)-amino]-1,1-bis-[3-(4-ethoxy-phenyl)-propyl]-piperidinium chloride]
7.66	COCCOc1ccc(CCC[N+]2(CCCc3ccc(OCCOC)cc3)CCCC(NC(=O)c3nc(Cl)c(N)nc3N)C2)cc1 (stereo not drawn) [Example 9.3, 3-[(3,5-Diamino-6-chloro-pyrazine-2-carbonyl)-amino]-1,1-bis-{3-[4-(2-methoxy-ethoxy)-phenyl]-propyl}-piperidinium chloride]
7.17	Nc1nc(N)c(C(=O)N[C@H]2CCC[N+](CCCc3ccc(OCCOCCOCCOCCO)cc3)(CCCc3ccc(OCCOCCOCCOCCO)cc3)C2)nc1Cl [Example 9.4, 3-[(3,5-Diamino-6-chloro-pyrazine-2-carbonyl)-amino]-1,1-bis-{3-[4-(2-{2-[2-(2-hydroxy-ethoxy)-ethoxy]-ethoxy}-ethoxy)-phenyl]-propyl}-piperidinium chloride]
7.20	CN(C)CCOc1ccc(CCC[N+]2(CCCc3ccc(OCCN(C)C)cc3)CCC[C@H](NC(=O)c3nc(Cl)c(N)nc3N)C2)cc1 [Example 9.5, 3-[(3,5-Diamino-6-chloro-pyrazine-2-carbonyl)-amino]-1,1-bis-{3-[4-(2-dimethylamino-ethoxy)-phenyl]-propyl}-piperidinium chloride dihydrochloride]
7.42	Nc1nc(N)c(C(=O)N[C@H]2CCC[N+](CCCc3ccc(OCCO)cc3)(CCCc3ccc(OCCO)cc3)C2)nc1Cl [Example 9.6, (S)-3-[(3,5-Diamino-6-chloro-pyrazine-2-carbonyl)-amino]-1,1-bis-{3-[4-(2-hydroxyethoxy)-phenyl]-propyl}-piperidinium chloride]
7.89	Nc1nc(N)c(C(=O)NC2CCC[N+](CCCc3cccc(O)c3)(CCCc3cccc(O)c3)C2)nc1Cl (stereo not drawn) [Example 10.9, 3-[(3,5-Diamino-6-chloro-pyrazine-2-carbonyl)-amino]-1,1-bis-[3-(3-hydroxy-phenyl)propyl]-piperidinium chloride]
8.15	Cn1ccnc1CNC(=O)COc1cccc(CCC[N+]2(CCCc3cccc(OCC(=O)NCc4nccn4C)c3)CCC[C@H](NC(=O)c3nc(Cl)c(N)nc3N)C2)c1 [Example 10.11, (S)-3-[(3,5-Diamino-6-chloro-pyrazine-2-carbonyl)-amino]-1,1-bis-[3-(3-{[(1-methyl-1H-imidazol-2-ylmethyl)-carbamoyl]-methoxy}-phenyl)-propyl]-piperidinium hydroxide]

same assay, conditions: Ussing chamber, mouse kidney M-1 cells, short circuit current; value printed in the example text with μM; read-out: IC50

IC50	Compound
0.025 µM	COC(=O)COc1cccc(CCC[N+]2(CCCc3cccc(OCC(=O)OC)c3)CCC[C@H](NC(=O)c3nc(Cl)c(N)nc3N)C2)c1 [Example 10.10, (S)-3-[(3,5-Diamino-6-chloro-pyrazine-2-carbonyl)-amino]-1,1-bis-[3-(3-methoxycarbonylmethoxy-phenyl)-propyl]-piperidinium chloride]
